{"source": "patent US20030109567A1", "about": "“Novel angiogenesis inhibitor” (RIKEN, priority 2001, published 2003)", "assay": "Solubility (physicochemical properties)", "experimental": "The syrup was dissolved in chloroform 10 ml and applied to a silica gel column charged with chloroform (4 cm diameter, 60 cm length). Initially, elution was performed with chloroform 500 ml, then with each 500 ml of a chloroform/methanol solution having a successively changed mixing ratio (100:0, 100:2, 50:1, 20:1, 10:1, 5:1, 1:1). The compound of the present invention, RKB-3134A, was eluted in a fraction with the chloroform/methanol solution (50:1). The fraction was concentrated under reduced pressure to give a brown syrup 1.4 g. Then, the brown syrup 1.4 g was dissolved in a methanol/acetonitrile solution (1:1, 14 ml) and made into aliquots, and purified by high performance liquid chromatography (acetonitrile : water=2:8→acetonitrile : water=1:1; linear gradient (30 minutes), flow rate 9.0 ml/min) using a reverse phase ODS column (2 cm diameter, 25 cm length, PEGASIL ODS, Senshu Kagaku Co.) to give RKB-3134A. Recrystallization was further carried out from a mixed solvent of hexane/ethyl acetate/methanol to give a pure RKB-3134A (90 mg) as pale yellow powder. Physicochemical properties of RKB-3134A are shown below.\nInsoluble in n-hexane or water.", "data": [{"smiles": "CC/C=C/C=C/C1=C(C)C(=O)C2(O1)C(=O)NC(O)(Cc1ccccc1)C2O", "note": "(centres unmarked) [RKB-3134A]", "values": [{"measurement": "Solubility in methanol, acetone, or dimethyl sulfoxide", "setting": "solvent: methanol, acetone, or dimethyl sulfoxide", "value": "easily soluble"}, {"measurement": "Solubility in n-hexane or water", "setting": "solvent: n-hexane or water", "value": "Insoluble"}]}]}
